Measured values reported in PubChem BioAssay (NCI).
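1) Cells in 96-well plates. 2) Compound, 48 h, 5 concentrations. 3) Linear interpolation between surrounding doses. 4) Unreached endpoint = highest concentration. Definition used: TGI = concentration required for complete inhibition of growth.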

Assays:
Test in all cases: growth of human tumour cells (NCI), 48 h
U251 CNS = test system: U251 CNS
786-0 renal = test system: 786-0 renal
CAKI-1 renal = test system: CAKI-1 renal
UACC-62 melanoma = test system: UACC-62 melanoma
CCRF-CEM leukemia = test system: CCRF-CEM leukemia
ACHN renal = test system: ACHN renal
A498 renal = test system: A498 renal
NCI/ADR-RES ovarian = test system: NCI/ADR-RES ovarian
OVCAR-5 ovarian = test system: OVCAR-5 ovarian
MDA-N = test system: MDA-N
NCI-H226 lung = test system: NCI-H226 lung
HL-60(TB) leukemia = test system: HL-60(TB) leukemia
K-562 leukemia = test system: K-562 leukemia
MDA-MB-231 breast = test system: MDA-MB-231 breast
M14 melanoma = test system: M14 melanoma
UACC-257 melanoma = test system: UACC-257 melanoma
HCT-116 colon = test system: HCT-116 colon
OVCAR-8 ovarian = test system: OVCAR-8 ovarian
SN12C renal = test system: SN12C renal
SW-620 colon = test system: SW-620 colon
MALME-3M melanoma = test system: MALME-3M melanoma
MCF7 breast = test system: MCF7 breast
MDA-MB-435 = test system: MDA-MB-435
RXF 393 renal = test system: RXF 393 renal
T-47D breast = test system: T-47D breast
MOLT-4 leukemia = test system: MOLT-4 leukemia
PC-3 prostate = test system: PC-3 prostate
HS 578T breast = test system: HS 578T breast
UO-31 renal = test system: UO-31 renal
RPMI-8226 leukemia = test system: RPMI-8226 leukemia
OVCAR-4 ovarian = test system: OVCAR-4 ovarian
NCI-H460 lung = test system: NCI-H460 lung
A549 NSCLC = test system: A549 NSCLC
OVCAR-3 ovarian = test system: OVCAR-3 ovarian
SF-295 CNS = test system: SF-295 CNS
SK-MEL-2 melanoma = test system: SK-MEL-2 melanoma
SK-MEL-5 melanoma = test system: SK-MEL-5 melanoma
LOX IMVI melanoma = test system: LOX IMVI melanoma
SR leukemia = test system: SR leukemia
SF-268 CNS = test system: SF-268 CNS
COLO 205 colon = test system: COLO 205 colon
HOP-92 NSCLC = test system: HOP-92 NSCLC
TK-10 renal = test system: TK-10 renal
SNB-75 CNS = test system: SNB-75 CNS
KM12 colon = test system: KM12 colon
HT29 colon = test system: HT29 colon
EKVX NSCLC = test system: EKVX NSCLC
DU-145 prostate = test system: DU-145 prostate
SK-OV-3 ovarian = test system: SK-OV-3 ovarian
SK-MEL-28 melanoma = test system: SK-MEL-28 melanoma
SNB-19 CNS = test system: SNB-19 CNS
HCT-15 colon = test system: HCT-15 colon
SF-539 CNS = test system: SF-539 CNS
NCI-H23 lung = test system: NCI-H23 lung
BT-549 breast = test system: BT-549 breast
NCI-H522 lung = test system: NCI-H522 lung
HCC-2998 colon = test system: HCC-2998 colon

Measured: TGI

c1ccc(NNN2NC(c3ccccc3)C2c2ccccc2)cc1 (configuration not stated)
> 100 µM: all assays above
